Data reported in patent US7803930B2, “Antisense modulation of apolipoprotein B-expression” (Isis Pharmaceuticals, Inc., priority 2002, dated 2010).
In the oligonucleotide strings, read from the 5' end, every base follows the letter of its sugar. An asterisk marks phosphorothioate; unmarked linkages are phosphodiester. Other units and linkages are bracketed, terminal groups are in braces. A string of capitals states the bases alone. e = 2'-O-(2-methoxyethyl) (MOE); [5mC] = 5-methylcytosine; d = 2'-deoxy (DNA)

System: human apolipoprotein B mRNA
Test: Inhibition of human apolipoprotein B mRNA levels in HepG2 cells, quantitative real-time PCR
Assay type: cell-based
Conditions: HepG2 cells treated with 150 nM of compound; averages from two experiments; quantitative real-time PCR
Outline: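 Apolipoprotein B transcript was quantified by one-step TaqMan RT-PCR, normalized to GAPDH or RiboGreen RNA, and expressed as percent inhibition against an untreated-sample standard curve. HepG2 cells were harvested 16-24 h after oligonucleotide exposure, which was delivered with 3.75 μg/mL Lipofectin over 4-7 h at 80% confluency.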

Row | Substance | % INHIB (inhibition of human apolipoprotein B mRNA levels)
1 | 281634 (antisense e[5mC]*eT*e[5mC]*eT*e[5mC]*dG*dA*dT*dT*dA*dA*d[5mC]*dT*d[5mC]*dA*eT*eG*eG*eA*e[5mC]) [compound 281634] | 81%
2 | 281635 (antisense eA*eT*eA*e[5mC]*eA*d[5mC]*dT*dG*d[5mC]*dA*dA*d[5mC]*dT*dG*dT*eG*eG*e[5mC]*e[5mC]*eT) [compound 281635] | 89%
3 | 281636 (antisense eG*e[5mC]*eA*eA*eG*dA*dG*dT*d[5mC]*d[5mC]*dA*d[5mC]*d[5mC]*dA*dA*eT*e[5mC]*eA*eG*eA) [compound 281636] | 68%
4 | 281637 (antisense eA*eG*eA*eG*e[5mC]*d[5mC]*dT*dG*dA*dA*dG*dA*d[5mC]*dT*dG*eA*e[5mC]*eT*eT*e[5mC]) [compound 281637] | 74%
5 | 281638 (antisense eT*e[5mC]*e[5mC]*e[5mC]*eT*d[5mC]*dA*dT*d[5mC]*dT*dG*dA*dG*dA*dA*eT*e[5mC]*eT*eG*eG) [compound 281638] | 66%
6 | 281640 (e[5mC]*eA*eG*eT*eG*d[5mC]*dA*dT*d[5mC]*dA*dA*dT*dG*dA*d[5mC]*eA*eG*eA*eT*eG; antisense) [compound 281640] | 87%
7 | 281641 (e[5mC]*e[5mC]*eG*eA*eA*d[5mC]*d[5mC]*d[5mC]*dT*dT*dG*dA*d[5mC]*dA*dT*e[5mC]*eT*e[5mC]*e[5mC]*eT; antisense) [compound 281641] | 72%
8 | 281642 (eG*e[5mC]*e[5mC]*eT*e[5mC]*dA*d[5mC]*dT*dA*dG*d[5mC]*dA*dA*dT*dA*eG*eT*eT*e[5mC]*e[5mC]; antisense) [compound 281642] | 59%
9 | 281643 (eG*eA*e[5mC]*eA*eT*dT*dT*dG*d[5mC]*d[5mC]*dA*dT*dG*dG*dA*eG*eA*eG*eA*eG; antisense) [compound 281643] | 61%
10 | 281644 (e[5mC]*eT*eG*eT*e[5mC]*dT*d[5mC]*d[5mC]*dT*dA*d[5mC]*d[5mC]*dA*dA*dT*eG*e[5mC]*eT*eG*eG; antisense) [compound 281644] | 26%
11 | 281645 (eT*e[5mC]*eT*eG*e[5mC]*dA*d[5mC]*dT*dG*dA*dA*dG*dT*d[5mC]*dA*e[5mC]*eG*eG*eT*eG; antisense) [compound 281645] | 78%
12 | 281646 (eT*e[5mC]*e[5mC]*e[5mC]*eG*dG*dA*d[5mC]*d[5mC]*d[5mC]*dT*d[5mC]*dA*dA*d[5mC]*eT*e[5mC]*eA*eG*eT; antisense) [compound 281646] | 76%
13 | 281648 (eG*e[5mC]*eA*eG*eG*dT*d[5mC]*d[5mC]*dA*dG*dT*dT*d[5mC]*dA*dT*eA*eT*eG*eT*eG; antisense) [compound 281648] | 81%
14 | 281649 (eG*e[5mC]*e[5mC]*eA*eT*d[5mC]*d[5mC]*dT*dT*d[5mC]*dT*dG*dA*dG*dT*eT*e[5mC]*eA*eG*eA; antisense) [compound 281649] | 76%
15 | 301013 (e[5mC]*e[5mC]*e[5mC]*e[5mC]*eG*d[5mC]*dA*dG*dG*dT*d[5mC]*d[5mC]*d[5mC]*dG*dG*eT*eG*eG*eG*eA; antisense) [compound 301013] | 82%
16 | 301015 (e[5mC]*eA*eA*e[5mC]*e[5mC]*dG*dA*dG*dA*dA*dG*dG*dG*d[5mC]*dA*e[5mC]*eT*e[5mC]*eA*eG; antisense) [compound 301015] | 53%
17 | 301016 (e[5mC]*e[5mC]*eT*e[5mC]*eA*dG*d[5mC]*dG*dG*d[5mC]*dA*dG*d[5mC]*dA*dA*e[5mC]*e[5mC]*eG*eA*eG; antisense) [compound 301016] | 62%
18 | 301017 (eT*e[5mC]*e[5mC]*eT*e[5mC]*dA*dG*d[5mC]*dG*dG*d[5mC]*dA*dG*d[5mC]*dA*eA*e[5mC]*e[5mC]*eG*eA; antisense) [compound 301017] | 47%
19 | 301018 (e[5mC]*eT*e[5mC]*e[5mC]*eT*d[5mC]*dA*dG*d[5mC]*dG*dG*d[5mC]*dA*dG*d[5mC]*eA*eA*e[5mC]*e[5mC]*eG; antisense) [compound 301018] | 45%
20 | 301019 (eG*eG*e[5mC]*eT*e[5mC]*d[5mC]*dT*d[5mC]*dA*dG*d[5mC]*dG*dG*d[5mC]*dA*eG*e[5mC]*eA*eA*e[5mC]; antisense) [compound 301019] | 70%

Row | Substance | % INHIB (inhibition of human apolipoprotein B mRNA levels)
21 | 301020 (eG*eG*e[5mC]*eG*eG*dG*d[5mC]*dT*d[5mC]*d[5mC]*dT*d[5mC]*dA*dG*d[5mC]*eG*eG*e[5mC]*eA*eG; antisense) [compound 301020] | 85%
22 | 301022 (eG*eG*e[5mC]*eG*eG*dG*dT*d[5mC]*d[5mC]*dA*dT*d[5mC]*dG*d[5mC]*d[5mC]*eA*eG*e[5mC]*eT*eG; antisense) [compound 301022] | 69%
23 | 301023 (eT*eA*eG*eA*eG*dG*dA*dT*dG*dA*dT*dA*dG*dT*dA*eA*eG*eT*eT*e[5mC]; antisense) [compound 301023] | 69%
24 | 301024 (eA*eA*eA*eT*eG*dA*dA*dG*dA*dT*dT*dT*d[5mC]*dT*dT*eT*eT*eA*eA*eA; antisense) [compound 301024] | 5%
25 | 301025 (eT*eA*eT*eG*eT*dG*dA*dA*dA*dG*dT*dT*d[5mC]*dA*dA*eT*eT*eG*eG*eA; antisense) [compound 301025] | 76%
26 | 301026 (eA*eT*eA*eT*eA*dG*dG*d[5mC]*dA*dG*dT*dT*dT*dG*dA*eA*eT*eT*eT*eT; antisense) [compound 301026] | 57%
27 | 301032 (e[5mC]*eT*eA*e[5mC]*eT*dG*d[5mC]*dA*dA*dG*dG*d[5mC]*dT*dG*dG*e[5mC]*eT*e[5mC]*eA*e[5mC]; antisense) [compound 301032] | 63%
28 | 301033 (eA*e[5mC]*eT*eG*e[5mC]*d[5mC]*dT*dA*d[5mC]*dT*dG*d[5mC]*dA*dA*dG*eG*e[5mC]*eT*eG*eG; antisense) [compound 301033] | 77%
29 | 301034 (eT*eG*e[5mC]*eT*eT*dA*dT*dA*dG*dT*d[5mC]*dT*dA*d[5mC]*dT*eG*e[5mC]*e[5mC]*eT*eA; antisense) [compound 301034] | 88%
30 | 301035 (eT*eT*e[5mC]*eT*eG*d[5mC]*dT*dT*dA*dT*dA*dG*dT*d[5mC]*dT*eA*e[5mC]*eT*eG*e[5mC]; antisense) [compound 301035] | 82%
31 | 301036 (eT*eT*eT*eG*eG*dT*dG*d[5mC]*dA*dG*dG*dT*d[5mC]*d[5mC]*dA*eG*eT*eT*e[5mC]*eA; antisense) [compound 301036] | 88%
32 | 301039 (eT*eG*eG*eT*eG*d[5mC]*d[5mC]*dA*dG*d[5mC]*dT*dT*dT*dG*dG*eT*eG*e[5mC]*eA*eG; antisense) [compound 301039] | 73%
33 | 301040 (eG*e[5mC]*e[5mC]*e[5mC]*eT*dG*dG*dT*dG*d[5mC]*d[5mC]*dA*dG*d[5mC]*dT*eT*eT*eG*eG*eT; antisense) [compound 301040] | 74%
34 | 301041 (eG*eA*eG*eT*eT*d[5mC]*dA*dG*dA*dG*dA*d[5mC]*d[5mC]*dT*dT*e[5mC]*e[5mC]*eG*eA*eG; antisense) [compound 301041] | 85%
35 | 301042 (eA*eA*eA*eT*eG*d[5mC]*d[5mC]*dA*dT*d[5mC]*d[5mC]*dT*dT*d[5mC]*dT*eG*eA*eG*eT*eT; antisense) [compound 301042] | 81%
36 | 301043 (eA*eA*eA*eA*eA*dT*dG*d[5mC]*d[5mC]*dA*dT*d[5mC]*d[5mC]*dT*dT*e[5mC]*eT*eG*eA*eG; antisense) [compound 301043] | 81%
37 | 301044 (eA*eA*eA*eA*eT*dA*dA*d[5mC]*dT*d[5mC]*dA*dG*dA*dT*d[5mC]*e[5mC]*eT*eG*eA*eT; antisense) [compound 301044] | 76%
38 | 301046 (eA*eG*eT*eT*eT*dA*dG*d[5mC]*dA*dA*dA*dA*dT*dA*dA*e[5mC]*eT*e[5mC]*eA*eG; antisense) [compound 301046] | 80%
39 | 301047 (eT*e[5mC]*e[5mC]*e[5mC]*e[5mC]*d[5mC]*dA*dA*dG*dT*dT*dT*dA*dG*d[5mC]*eA*eA*eA*eA*eT; antisense) [compound 301047] | 56%
40 | 301048 (eT*eT*e[5mC]*e[5mC]*eT*d[5mC]*d[5mC]*dT*d[5mC]*d[5mC]*d[5mC]*d[5mC]*d[5mC]*dA*dA*eG*eT*eT*eT*eA; antisense) [compound 301048] | 67%

Same assay, conditions: Table 12; HepG2 cells, 150 nM; averages from two experiments

Row | Substance | % INHIB
41 | 281639 (antisense eG*eA*e[5mC]*eG*eT*d[5mC]*dA*dG*dA*dA*d[5mC]*d[5mC]*dT*dA*dT*eG*eA*eT*eG*eG) [compound 281639] | 38%
42 | 281647 (eT*eG*eA*eG*eT*dG*dA*dG*dT*d[5mC]*dA*dA*dT*d[5mC]*dA*eG*e[5mC]*eT*eT*e[5mC]) [compound 281647] | 73%

Same assay, conditions: Table 19 dose response; HepG2 cells, 37 nM; normalized to untreated control

Row | Substance | % inhibition 37 nM
43 | 301034 (eT*eG*e[5mC]*eT*eT*dA*dT*dA*dG*dT*d[5mC]*dT*dA*d[5mC]*dT*eG*e[5mC]*e[5mC]*eT*eA; antisense) [compound 301034] | 73%
44 | 301036 (eT*eT*eT*eG*eG*dT*dG*d[5mC]*dA*dG*dG*dT*d[5mC]*d[5mC]*dA*eG*eT*eT*e[5mC]*eA; antisense) [compound 301036] | 67%

Same assay, conditions: Table 19 dose response; HepG2 cells, 75 nM; normalized to untreated control

Row | Substance | % inhibition 75 nM
45 | 301034 (eT*eG*e[5mC]*eT*eT*dA*dT*dA*dG*dT*d[5mC]*dT*dA*d[5mC]*dT*eG*e[5mC]*e[5mC]*eT*eA; antisense) [compound 301034] | 87%
46 | 301036 (eT*eT*eT*eG*eG*dT*dG*d[5mC]*dA*dG*dG*dT*d[5mC]*d[5mC]*dA*eG*eT*eT*e[5mC]*eA; antisense) [compound 301036] | 83%

Same assay, conditions: Table 19 dose response; HepG2 cells, 150 nM; normalized to untreated control

Row | Substance | % inhibition 150 nM
47 | 301034 (eT*eG*e[5mC]*eT*eT*dA*dT*dA*dG*dT*d[5mC]*dT*dA*d[5mC]*dT*eG*e[5mC]*e[5mC]*eT*eA; antisense) [compound 301034] | 93%
48 | 301036 (eT*eT*eT*eG*eG*dT*dG*d[5mC]*dA*dG*dG*dT*d[5mC]*d[5mC]*dA*eG*eT*eT*e[5mC]*eA; antisense) [compound 301036] | 92%

Same assay, conditions: Table 19 dose response; HepG2 cells, 300 nM; normalized to untreated control

Row | Substance | % inhibition 300 nM
49 | 301034 (eT*eG*e[5mC]*eT*eT*dA*dT*dA*dG*dT*d[5mC]*dT*dA*d[5mC]*dT*eG*e[5mC]*e[5mC]*eT*eA; antisense) [compound 301034] | 97%
50 | 301036 (eT*eT*eT*eG*eG*dT*dG*d[5mC]*dA*dG*dG*dT*d[5mC]*d[5mC]*dA*eG*eT*eT*e[5mC]*eA; antisense) [compound 301036] | 95%
